Source: PubChem BioAssay AID248 (DTP/NCI, 2004)
“And” between values parts separate entries of the source, which are not always exact repeats. Identical values can stand only once. Inconclusive results and toxic doses are left out.

System: L1210 leukemia ip in BDF1 mice, survival T/C
Test: NCI In Vivo Anticancer Drug Screen. Data for tumor model L1210 Leukemia (intraperitoneal) in B6D2F1 (BDF1) mice
Conditions: endpoint: mean survival time, higher = longer survival
Summary of the method: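 Tumor was transplanted into mice, which were then dosed with test compound or vehicle alone. Survival was recorded for each group, and the treated figure was expressed relative to the control figure.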

[1] = dose: 100.0 mg/kg/injection, schedule: Q04DX002 (ip), vehicle: Klucel (hydroxypropylcellulose) (HPC)
[2] = dose: 200.0 mg/kg/injection, schedule: Q04DX002 (ip), vehicle: Klucel (hydroxypropylcellulose) (HPC)
[3] = dose: 400.0 mg/kg/injection, schedule: Q04DX002 (ip), vehicle: Klucel (hydroxypropylcellulose) (HPC)
[4] = dose: 100.0 mg/kg/injection, schedule: Q04DX003 (ip), vehicle: Klucel (hydroxypropylcellulose) (HPC)
[5] = dose: 200.0 mg/kg/injection, schedule: Q04DX003 (ip), vehicle: Klucel (hydroxypropylcellulose) (HPC)
[6] = dose: 400.0 mg/kg/injection, schedule: Q04DX003 (ip), vehicle: Klucel (hydroxypropylcellulose) (HPC)
[7] = dose: 100.0 mg/kg/injection, schedule: Q01DX001 (ip), vehicle: other
[8] = dose: 200.0 mg/kg/injection, schedule: Q01DX001 (ip), vehicle: other
[9] = dose: 100.0 mg/kg/injection, schedule: Q01DX001 (ip), vehicle: saline with Tween-80
[10] = dose: 200.0 mg/kg/injection, schedule: Q01DX001 (ip), vehicle: saline
[11] = dose: 400.0 mg/kg/injection, schedule: Q01DX001 (ip), vehicle: saline

## CCOC(=O)C(Nc1cccc2ccccc12)C(=O)OCC
[1]
  T/C: 105 % of control
[2]
  T/C: 103 % of control
[3]
  T/C: 100 % of control

## CCN(CC)S(=O)(=O)c1cccc(C(O)CC(O)(C(F)(F)F)C(F)(F)F)c1 (configuration not stated)
dose: 100.0 mg/kg/injection, schedule: Q04DX003 (ip), vehicle: other
  T/C: 102 % of control
dose: 200.0 mg/kg/injection, schedule: Q04DX003 (ip), vehicle: other
  T/C: 100 % of control
dose: 400.0 mg/kg/injection, schedule: Q04DX003 (ip), vehicle: other
  T/C: 96 % of control

## O=C(Cc1ccc([N+](=O)[O-])cc1)Nc1cccc(O)c1
[4]
  T/C: 97 % of control
[5]
  T/C: 108 % of control
[6]
  T/C: 101 % of control

## c1ccn2nnnc2c1
[7]
  T/C: 97 % of control
[8]
  T/C: 94 % of control

## Cc1ccc(NS(=O)(=O)c2ccccc2)nc1
dose: 100.0 mg/kg/injection, schedule: Q01DX009 (ip), vehicle: saline with Tween-80
  T/C: 96 % of control
dose: 100.0 mg/kg/injection, schedule: Q04DX003 (ip), vehicle: saline with Tween-80
  T/C: 99 % of control
dose: 200.0 mg/kg/injection, schedule: Q01DX009 (ip), vehicle: saline with Tween-80
  T/C: 98 % of control
dose: 200.0 mg/kg/injection, schedule: Q04DX003 (ip), vehicle: saline with Tween-80
  T/C: 93 % of control
dose: 400.0 mg/kg/injection, schedule: Q01DX009 (ip), vehicle: saline with Tween-80
  T/C: 98 % of control
dose: 400.0 mg/kg/injection, schedule: Q04DX003 (ip), vehicle: saline with Tween-80
  T/C: 96 % of control

## Cc1csc(=S)n1-c1ccc(Cl)cc1
[9]
  T/C: 107 % of control
dose: 200.0 mg/kg/injection, schedule: Q01DX001 (ip), vehicle: saline with Tween-80
  T/C: 100 % of control
dose: 400.0 mg/kg/injection, schedule: Q01DX001 (ip), vehicle: saline with Tween-80
  T/C: 98 % of control

## C=C1C(=O)OCC2C(C(=O)O)=CC3C(C)C(C)=CC123 (configuration not stated)
dose: 20.0 mg/kg/injection, schedule: Q01DX009 (ip), vehicle: saline with Tween-80
  T/C: 108 % of control
dose: 40.0 mg/kg/injection, schedule: Q01DX009 (ip), vehicle: saline with Tween-80
  T/C: 111 % of control

## COc1cc2c(ccc3c4cc(OC)c(OC)cc4c[n+](C)c23)cc1O
dose: 80.0 mg/kg/injection, schedule: Q01DX009 (ip), vehicle: saline
  T/C: 159 % of control
[4]
  T/C: 120 % of control
dose: 320.0 mg/kg/injection, schedule: Q01DX009 (ip), vehicle: saline
  T/C: 161 % of control
[6]
  T/C: 120 % of control

## C=C(C)CCCC(C)C/C=N/NC(=O)CNC(=O)C=[N+]=[N-] (configuration not stated) (tested in a mixture with another compound)
dose: 50.0 mg/kg/injection, schedule: Q01DX001 (ip), vehicle: water
  T/C: 100 % of control
dose: 100.0 mg/kg/injection, schedule: Q01DX001 (ip), vehicle: water
  T/C: 93 % of control
dose: 200.0 mg/kg/injection, schedule: Q01DX001 (ip), vehicle: water
  T/C: 91 % of control
dose: 400.0 mg/kg/injection, schedule: Q01DX001 (ip), vehicle: water
  T/C: 100 % of control

## O=[N+]([O-])n1cnnc1-c1ccccc1
dose: 12.5 mg/kg/injection, schedule: Q04DX003 (ip), vehicle: gum acacia
  T/C: 96 % of control
dose: 25.0 mg/kg/injection, schedule: Q04DX003 (ip), vehicle: gum acacia
  T/C: 102 % of control
dose: 50.0 mg/kg/injection, schedule: Q04DX003 (ip), vehicle: gum acacia
  T/C: 98 % of control

## Cc1ccc(S(=O)(=O)OCC(O)C(OC(=O)c2ccccc2)C(OC(=O)c2ccccc2)C(CO)OC(=O)c2ccccc2)cc1 (configuration not stated)
dose: 25.0 mg/kg/injection, schedule: Q01DX001 (ip), vehicle: saline with Tween-80
  T/C: 92 % of control
dose: 50.0 mg/kg/injection, schedule: Q01DX001 (ip), vehicle: saline with Tween-80
  T/C: 95 % of control
[9]
  T/C: 88 % of control and 89 % of control

## Cc1cc(Cl)c2c(Cl)ccc(Cl)c2n1
dose: 100.0 mg/kg/injection, schedule: Q01DX001 (ip), vehicle: saline
  T/C: 98 % of control
[10]
  T/C: 96 % of control
[11]
  T/C: 98 % of control

## Cc1ccc(S(=O)(=O)C2CCCC/C2=N\Nc2ccc([N+](=O)[O-])cc2[N+](=O)[O-])cc1 (configuration not stated)
[7]
  T/C: 105 % of control
[8]
  T/C: 103 % of control
dose: 400.0 mg/kg/injection, schedule: Q01DX001 (ip), vehicle: other
  T/C: 96 % of control

## CN(C)OC(=O)Nc1cccc2ccccc12
dose: 100.0 mg/kg/injection, schedule: Q04DX002 (ip), vehicle: DMSO
  T/C: 96 % of control
dose: 200.0 mg/kg/injection, schedule: Q04DX002 (ip), vehicle: DMSO
  T/C: 108 % of control
dose: 400.0 mg/kg/injection, schedule: Q04DX002 (ip), vehicle: DMSO
  T/C: 101 % of control

## O=C(O)COc1ccc(Cl)cc1C(=O)O
[4]
  T/C: 96 % of control
[5]
  T/C: 104 % of control
[6]
  T/C: 101 % of control

## O=[N+]([O-])c1cccc(C=Nc2ccc(Nc3ccccc3)cc2)c1
[1]
  T/C: 114 % of control
[2]
  T/C: 100 % of control
[3]
  T/C: 111 % of control

## Cl[Si](c1ccccc1)(c1ccccc1)c1ccc([Si](Cl)(c2ccccc2)c2ccccc2)cc1
dose: 100.0 mg/kg/injection, schedule: Q04DX002 (ip), vehicle: saline with Tween-80
  T/C: 87 % of control
dose: 200.0 mg/kg/injection, schedule: Q04DX002 (ip), vehicle: saline with Tween-80
  T/C: 92 % of control
dose: 400.0 mg/kg/injection, schedule: Q04DX002 (ip), vehicle: saline with Tween-80
  T/C: 96 % of control

## CCCCCC1CCC(OC(=O)NC)CC1 (configuration not stated)
dose: 100.0 mg/kg/injection, schedule: Q01DX001 (ip), vehicle: Klucel (hydroxypropylcellulose) (HPC)
  T/C: 99 % of control
dose: 200.0 mg/kg/injection, schedule: Q01DX001 (ip), vehicle: Klucel (hydroxypropylcellulose) (HPC)
  T/C: 100 % of control
dose: 400.0 mg/kg/injection, schedule: Q01DX001 (ip), vehicle: Klucel (hydroxypropylcellulose) (HPC)
  T/C: 94 % of control

## C[n+]1c(-c2ccccc2)c2cc(N)ccc2c2ccccc21
dose: 0.2 mg/kg/injection, schedule: Q01DX Z (ip), vehicle: methylcellulose (MC)
  T/C: 108 % of control
dose: 0.3 mg/kg/injection, schedule: Q01DX Z (ip), vehicle: methylcellulose (MC)
  T/C: 113 % of control
dose: 0.5 mg/kg/injection, schedule: Q01DX Z (ip), vehicle: methylcellulose (MC)
  T/C: 102 % of control and 114 % of control
dose: 0.75 mg/kg/injection, schedule: Q01DX Z (ip), vehicle: methylcellulose (MC)
  T/C: 111 % of control
dose: 1.0 mg/kg/injection, schedule: Q01DX Z (ip), vehicle: methylcellulose (MC)
  T/C: 107 % of control and 120 % of control
dose: 1.5 mg/kg/injection, schedule: Q01DX Z (ip), vehicle: methylcellulose (MC)
  T/C: 104 % of control
dose: 1.5 mg/kg/injection, schedule: Q01DX Z (ip), vehicle: saline
  T/C: 111 % of control
dose: 2.0 mg/kg/injection, schedule: Q01DX Z (ip), vehicle: carboxymethylcellulose (CMC)
  T/C: 106 % of control
dose: 2.0 mg/kg/injection, schedule: Q01DX Z (ip), vehicle: methylcellulose (MC)
  T/C: 110 % of control and 113 % of control
dose: 3.0 mg/kg/injection, schedule: Q01DX Z (ip), vehicle: carboxymethylcellulose (CMC)
  T/C: 112 % of control
dose: 3.0 mg/kg/injection, schedule: Q01DX Z (ip), vehicle: methylcellulose (MC)
  T/C: 117 % of control
dose: 3.0 mg/kg/injection, schedule: Q01DX Z (ip), vehicle: saline
  T/C: 117 % of control
dose: 4.0 mg/kg/injection, schedule: Q01DX Z (ip), vehicle: methylcellulose (MC)
  T/C: 121 % of control
dose: 4.4 mg/kg/injection, schedule: Q01DX Z (ip), vehicle: carboxymethylcellulose (CMC)
  T/C: 110 % of control
dose: 6.6 mg/kg/injection, schedule: Q01DX Z (ip), vehicle: carboxymethylcellulose (CMC)
  T/C: 120 % of control
dose: 8.0 mg/kg/injection, schedule: Q01DX Z (ip), vehicle: methylcellulose (MC)
  T/C: 121 % of control and 122 % of control
dose: 10.0 mg/kg/injection, schedule: Q01DX001 (ip), vehicle: saline
  T/C: 100 % of control
dose: 20.0 mg/kg/injection, schedule: Q01DX001 (ip), vehicle: saline
  T/C: 117 % of control
dose: 24.0 mg/kg/injection, schedule: Q01DX Z (ip), vehicle: saline
  T/C: 112 % of control
dose: 40.0 mg/kg/injection, schedule: Q01DX001 (ip), vehicle: saline
  T/C: 100 % of control

## O=C(/C(=C/c1ccc(Cl)cc1)c1ccccc1)c1ccc(O)cc1
[10]
  T/C: 92 % of control
[11]
  T/C: 86 % of control

## CC(=O)c1ccc2c(c1)C(=O)c1ccccc1-2
dose: 100.0 mg/kg/injection, schedule: Q01DX001 (ip), vehicle: carboxymethylcellulose (CMC)
  T/C: 92 % of control
dose: 200.0 mg/kg/injection, schedule: Q01DX001 (ip), vehicle: carboxymethylcellulose (CMC)
  T/C: 93 % of control
dose: 400.0 mg/kg/injection, schedule: Q01DX001 (ip), vehicle: carboxymethylcellulose (CMC)
  T/C: 93 % of control
